“Also recorded” adds a separate entry of the source. Like-named read-outs stand apart in the source and are kept apart here. Marks after values point to notes of the source that are not given here. Blank lines part the entries; values can stand above or below the compound they belong to.
Key:
P-gp = P-gp (Homo sapiens, UniProt P08183); details: 50 µM botryllamide; for fold change in rhodamine fluorescence (P-gp-mediated transport): valspodar 3 µg/ml, P-gp-expressing HEK293; for effect on P-gp: result in words
MRP1 = MRP1 (Homo sapiens, UniProt P33527); type: cell-based; details: 50 µM botryllamide; for fold increase in cellular calcein fluorescence (MRP1-mediated transport): MK-571 50 µM, MRP1-expressing HEK293; for effect on MRP1: result in words
ABCG2 [1] = target: T1, ABCG2 (Homo sapiens, UniProt Q9UNQ0); experiment: Screening assay: pheophorbide a; type: cell-based
T1 sequence (Q9UNQ0 1-655): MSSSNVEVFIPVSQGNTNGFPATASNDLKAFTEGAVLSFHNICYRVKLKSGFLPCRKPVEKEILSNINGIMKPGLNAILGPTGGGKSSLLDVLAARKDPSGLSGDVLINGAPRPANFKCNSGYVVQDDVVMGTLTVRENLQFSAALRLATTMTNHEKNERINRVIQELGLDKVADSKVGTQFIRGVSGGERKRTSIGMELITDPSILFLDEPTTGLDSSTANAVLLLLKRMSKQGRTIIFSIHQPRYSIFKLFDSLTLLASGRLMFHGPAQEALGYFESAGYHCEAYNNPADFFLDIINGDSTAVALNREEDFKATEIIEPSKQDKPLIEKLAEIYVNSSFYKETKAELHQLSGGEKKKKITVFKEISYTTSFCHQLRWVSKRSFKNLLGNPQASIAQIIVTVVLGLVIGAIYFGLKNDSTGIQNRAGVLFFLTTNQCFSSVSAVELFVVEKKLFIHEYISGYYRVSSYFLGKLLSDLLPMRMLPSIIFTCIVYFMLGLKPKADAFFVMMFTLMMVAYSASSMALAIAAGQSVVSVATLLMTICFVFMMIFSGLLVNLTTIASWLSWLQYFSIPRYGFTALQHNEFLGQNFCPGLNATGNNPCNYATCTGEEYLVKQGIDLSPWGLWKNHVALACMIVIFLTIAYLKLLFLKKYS

ABCG2 [2] = target: T1, ABCG2; type: cell-based; details: 10 µM compound; for activity in the BODIPY-prazosin flow cytometry assay: result in words
[3] = tested on: NCI-H460/MX20 (ABCG2-overexpressing) cells
[4] = tested on: parental NCI-H460 (ABCG2-) and NCI-H460/MX20 (ABCG2+) cells; experiment: Cytotoxicity of botryllamides alone, 7 d; type: cell-based, human; details: 100 µM botryllamide, result in words
ABCG2 [5] = target: T1, ABCG2; details: 20 µM compound, MCF-7 FLV1000 membranes
NCI-H460 parental cells = experiment: Mitoxantrone cytotoxicity in parental cells; type: cell-based, human; details: 10 µM mitoxantrone, vs vehicle (data not shown)
[6] = Light-induced isomerization on exposure to sunlight; type: physicochemical; details: result in words

Sequence of P-gp (P08183 whole entry): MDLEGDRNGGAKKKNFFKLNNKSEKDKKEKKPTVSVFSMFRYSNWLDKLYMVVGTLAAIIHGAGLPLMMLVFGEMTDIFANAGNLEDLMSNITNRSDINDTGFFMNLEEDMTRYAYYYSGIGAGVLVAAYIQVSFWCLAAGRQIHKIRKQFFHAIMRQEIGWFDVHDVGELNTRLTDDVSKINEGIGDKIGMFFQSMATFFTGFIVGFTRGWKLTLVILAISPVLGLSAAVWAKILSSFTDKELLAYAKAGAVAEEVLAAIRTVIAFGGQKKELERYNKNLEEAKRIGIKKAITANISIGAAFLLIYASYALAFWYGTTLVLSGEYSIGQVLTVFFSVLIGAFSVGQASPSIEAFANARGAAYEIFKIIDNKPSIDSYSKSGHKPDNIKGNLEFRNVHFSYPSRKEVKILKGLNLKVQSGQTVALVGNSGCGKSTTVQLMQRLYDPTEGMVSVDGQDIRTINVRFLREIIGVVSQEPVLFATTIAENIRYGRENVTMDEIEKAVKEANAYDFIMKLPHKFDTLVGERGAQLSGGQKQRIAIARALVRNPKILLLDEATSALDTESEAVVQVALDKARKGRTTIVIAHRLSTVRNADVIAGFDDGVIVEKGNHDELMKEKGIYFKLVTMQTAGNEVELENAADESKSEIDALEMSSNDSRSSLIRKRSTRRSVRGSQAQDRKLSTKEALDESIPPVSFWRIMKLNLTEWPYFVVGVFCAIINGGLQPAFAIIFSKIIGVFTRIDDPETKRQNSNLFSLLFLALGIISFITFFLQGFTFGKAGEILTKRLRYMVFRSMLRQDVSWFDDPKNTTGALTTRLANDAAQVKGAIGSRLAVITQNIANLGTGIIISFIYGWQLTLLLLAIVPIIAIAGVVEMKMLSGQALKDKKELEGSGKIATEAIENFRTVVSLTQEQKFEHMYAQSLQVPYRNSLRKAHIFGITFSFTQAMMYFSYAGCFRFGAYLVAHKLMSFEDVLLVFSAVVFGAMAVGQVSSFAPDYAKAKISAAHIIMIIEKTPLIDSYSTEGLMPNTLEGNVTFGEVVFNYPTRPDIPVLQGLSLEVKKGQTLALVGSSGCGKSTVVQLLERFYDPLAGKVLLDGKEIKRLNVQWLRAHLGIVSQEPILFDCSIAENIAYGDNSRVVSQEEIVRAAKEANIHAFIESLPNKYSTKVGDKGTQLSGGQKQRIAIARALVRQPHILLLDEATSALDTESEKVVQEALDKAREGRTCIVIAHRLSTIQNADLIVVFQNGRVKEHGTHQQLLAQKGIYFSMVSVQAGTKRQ
Sequence of MRP1 (P33527 whole entry): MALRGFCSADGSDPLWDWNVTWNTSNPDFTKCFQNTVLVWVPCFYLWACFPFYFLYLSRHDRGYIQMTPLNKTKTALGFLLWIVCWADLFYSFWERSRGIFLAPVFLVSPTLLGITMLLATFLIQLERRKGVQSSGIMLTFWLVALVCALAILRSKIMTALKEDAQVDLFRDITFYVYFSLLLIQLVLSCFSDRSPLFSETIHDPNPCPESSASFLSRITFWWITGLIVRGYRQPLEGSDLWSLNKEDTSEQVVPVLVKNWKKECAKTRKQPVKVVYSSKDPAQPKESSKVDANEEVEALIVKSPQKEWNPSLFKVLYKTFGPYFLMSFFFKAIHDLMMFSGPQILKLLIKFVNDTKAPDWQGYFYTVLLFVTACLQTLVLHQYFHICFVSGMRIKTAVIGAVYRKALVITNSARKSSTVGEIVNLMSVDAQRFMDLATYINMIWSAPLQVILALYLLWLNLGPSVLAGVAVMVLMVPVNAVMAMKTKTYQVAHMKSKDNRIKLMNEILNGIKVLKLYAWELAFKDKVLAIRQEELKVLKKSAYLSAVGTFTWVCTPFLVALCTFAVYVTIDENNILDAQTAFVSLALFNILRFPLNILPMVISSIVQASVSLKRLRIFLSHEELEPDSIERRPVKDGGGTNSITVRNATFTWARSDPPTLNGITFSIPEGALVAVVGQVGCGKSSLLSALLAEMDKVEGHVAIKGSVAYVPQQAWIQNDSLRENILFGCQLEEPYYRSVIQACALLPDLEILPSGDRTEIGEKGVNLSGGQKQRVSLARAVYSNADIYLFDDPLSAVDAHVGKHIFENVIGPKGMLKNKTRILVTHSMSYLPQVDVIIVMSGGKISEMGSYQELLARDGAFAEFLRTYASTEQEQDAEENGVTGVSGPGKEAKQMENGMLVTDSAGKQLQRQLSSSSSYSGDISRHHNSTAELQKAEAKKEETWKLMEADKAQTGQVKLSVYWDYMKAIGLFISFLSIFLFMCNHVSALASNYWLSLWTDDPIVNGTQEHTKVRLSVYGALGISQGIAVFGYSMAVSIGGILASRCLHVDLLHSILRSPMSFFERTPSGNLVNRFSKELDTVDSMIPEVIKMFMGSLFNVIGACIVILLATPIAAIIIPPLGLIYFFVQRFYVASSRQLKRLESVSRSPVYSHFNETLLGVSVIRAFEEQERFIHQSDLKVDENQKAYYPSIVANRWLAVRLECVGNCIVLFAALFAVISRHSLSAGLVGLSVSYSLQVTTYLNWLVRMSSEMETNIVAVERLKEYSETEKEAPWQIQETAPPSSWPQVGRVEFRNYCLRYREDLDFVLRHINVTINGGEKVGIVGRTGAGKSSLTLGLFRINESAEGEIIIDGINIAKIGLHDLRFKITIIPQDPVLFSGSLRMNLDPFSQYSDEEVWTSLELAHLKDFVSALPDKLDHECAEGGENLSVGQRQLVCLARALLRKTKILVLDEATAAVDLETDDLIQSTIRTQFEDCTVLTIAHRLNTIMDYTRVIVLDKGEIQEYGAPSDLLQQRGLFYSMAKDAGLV

fold change in rhodamine fluorescence (P-gp-mediated transport) (P-gp): 17.6 fold
fold increase in cellular calcein fluorescence (MRP1-mediated transport) (MRP1): 4.5 fold
Compound: CO/C(=C\c1ccc(O)cc1)C(=O)N/C=C/c1cc(Br)c(OC)c(Br)c1 [Botryllamide A, botryllamide A]

Compound: CO/C(=C\c1ccc(O)cc1)C(=O)N/C=C/c1ccc(OC)c(Br)c1 [Botryllamide C, botryllamide C]
activity in the screening assay (PhA) (ABCG2 [1]; result in words): inactive
fold change in rhodamine fluorescence (P-gp-mediated transport) (P-gp): 46.4 fold
activity in the BODIPY-prazosin flow cytometry assay (ABCG2 [2]): active
activity in the mitoxantrone resistance reversal assay ([3]; 10 µM compound + 10 µM mitoxantrone, result in words): not particularly active
fold increase in cellular calcein fluorescence (MRP1-mediated transport) (MRP1): 3.7 fold

Compound: CO/C(=C\c1ccc(O)cc1)C(=O)N/C=C/c1ccc(OC)c(Br)c1 [Botryllamide D, botryllamide D]
IC50 (ABCG2 [1]): 16.4 ± 2.3 µM
effect on P-gp (P-gp): inactive
cytotoxicity [4]: significant cytotoxicity

effect on P-gp (P-gp): minimal effects; also recorded: inactive
effect on MRP1 (MRP1): minimal effects
Compound: CO/C(=C\c1ccc(O)cc1)C(=O)N/C=C/c1ccc(OC)cc1 [Botryllamide E, botryllamide E]

Compound: CO/C(=C\c1ccc(O)cc1)C(=O)N/C=C/c1ccc(O)cc1 [Botryllamide F, botryllamide F]
cytotoxicity [4]: significant cytotoxicity

Compound: CO/C(=C\c1ccc(O)cc1)C(=O)N/C=C/c1cc(Br)c(O)c(Br)c1 [Botryllamide G, botryllamide G]
max activity (% FTC) (ABCG2 [1]; human): 123.7 ± 1.7 ^d % FTC
effect on P-gp (P-gp): minimal effects; also recorded: inactive
effect on MRP1 (MRP1): minimal effects

activity in the screening assay (PhA) (ABCG2 [1]): inactive
activity in the BODIPY-prazosin flow cytometry assay (ABCG2 [2]): inactive
Compound: [C-]#[N+]c1c(O)cccc1/C=C(/O)C(=O)N/C=C/c1ccc(O)cc1 [Botryllamide H, botryllamide H]

Compound: COc1ccc2c3c([nH]c2c1)[C@H](C=C(C)C)N1C(=O)[C@@H]2CCCN2C(=O)[C@@H]1C3 [FTC, fumitremorgin C, reference compound]
fold increase in intracellular BODIPY-prazosin fluorescence (ABCG2 [2]; ABCG2-transfected HEK293, vs absence of inhibitor): 3.4 fold
cells surviving in the presence of mitoxantrone ([3]; 10 µM compound + 10 µM mitoxantrone, 3 days, vs vehicle (DMSO) control): 57%
[125I]IAAP binding (incorporation into ABCG2) (ABCG2 [5]): 14 % of control

Compound: O=C1c2c(O)ccc(O)c2C(=O)c2c(NCCNCCO)ccc(NCCNCCO)c21 [mitoxantrone, reference compound]
cells alive with mitoxantrone alone ([3]; 10 µM mitoxantrone, 3 days, NCI-H460 MX20, vs vehicle (DMSO)): approximately 88%
cells surviving with mitoxantrone alone (NCI-H460 parental cells): approximately 50%

fold change in rhodamine fluorescence (P-gp-mediated transport) (P-gp): 29.7 fold
Compound: C/C=C/C[C@@H](C)C(=O)[C@H]1C(=O)N[C@@H](C(C)C)C(=O)N(C)CC(=O)N(C)[C@@H](CC(C)C)C(=O)N[C@@H](C(C)C)C(=O)N(C)[C@@H](CC(C)C)C(=O)N[C@@H](C)C(=O)N[C@H](C)C(=O)N(C)[C@@H](CC(C)C)C(=O)N(C)[C@@H](CC(C)C)C(=O)N(C)[C@@H](C(C)C)C(=O)N1C [valspodar, reference compound]

IC50 (ABCG2 [1]): 11.2 ± 0.6 µM
Compound: botryllamide B
cytotoxicity [4]: significant cytotoxicity

IC50 (ABCG2 [1]): 41.4 ± 6.1 µM
Compound: botryllamide I
stability to sunlight [6]: irreversibly converted to botryllamide E (5) by exposure to sunlight

From PMC2853803 (ACS chemical biology, 2009)
